Experimental data reported in the supplement of paper PMC8837787.

System: Saccharomyces cerevisiae ABC16-Green Monster
Assay: growth inhibition at single dose (up to 150 µM), below the 70% cut-off for dose-response; higher = more potent
Conditions: 18 h; 30 °C; YPD
Procedure, shortened: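 Percent growth inhibition is the reported value. Drug-sensitive S. cerevisiae ABC16-Green Monster cultures in log phase (OD600 0.1–0.2), 200 µl per well in 96-well plates, received each library compound once at 150 µM in biological duplicates, with untreated cultures run alongside. Growth was followed by OD600 at 0 h and after 18 h at 30 °C. Dose-response was not done for compounds below 70% in both replicates.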

With `Cc1cc(C(=O)NCc2nnc3ccccn23)c(C)n1C1CCCCC1` the “growth inhibition at single dose” value was less than 70%.
In the case of `CCOC(=O)c1[nH]c(C)c(C(=O)CN(C)S(=O)(=O)c2c(C)noc2C)c1C`, the “growth inhibition at single dose” value is reported as less than 70%.
For `Cc1ncc(-c2ccnc(Nc3ccc(S(C)(=O)=O)cc3)n2)n1C(C)C`, the “growth inhibition at single dose” value was less than 70%.
For `CC(C)(C)c1cc(C(=O)N2CCN(c3nccnc3C#N)CC2)n(Cc2ccccc2)n1`, the “growth inhibition at single dose” value was less than 70%.
`COc1cccc(O)c1CN1CCC2(CCCN(Cc3ccc(F)cc3)C2)C1` (stereo unspecified) was tested, and the “growth inhibition at single dose” value was less than 70%.
`COc1ccc(N(CCc2cccc(C)n2)C(C)=O)cc1` was tested, and the “growth inhibition at single dose” value was less than 70%.
With `COc1cc2ncnc(NC3CCN(Cc4ccccc4)CC3)c2cc1OC` the “growth inhibition at single dose” value was less than 70%.
For `O=C(Nc1nc2ccc(OC(F)(F)F)cc2s1)c1cnccn1`, the “growth inhibition at single dose” value was less than 70%.
For `O=C(Nc1cccc(Cl)c1)c1cnc(N2CCN(c3ccncc3)CC2)c(Cl)c1`, the “growth inhibition at single dose” value was less than 70%.
For `CCN(CC)S(=O)(=O)c1ccc(OC(C)C)c(NC(=O)C2=CN3CCS(=O)(=O)N=C3C=C2)c1`, the “growth inhibition at single dose” value was less than 70%.
In the case of `CCCc1c(C)nc2ccc(Br)cc2c1O`, the “growth inhibition at single dose” value is reported as less than 70%.
For `COc1cccc2c(C)nc(N=C(N)N)nc12`, the “growth inhibition at single dose” value was less than 70%.
`COc1cccc(Nc2nc(N)c3ccccc3n2)c1` was tested, and the “growth inhibition at single dose” value was less than 70%.
`O=C(Nc1ccc(Oc2ccc3ccccc3c2)cc1)c1ccccc1` was tested, and the “growth inhibition at single dose” value was less than 70%.
In the case of `Cc1c(C)n(CCCO)c2ncn3nc(-c4ccccc4)nc3c12`, the “growth inhibition at single dose” value is reported as less than 70%.
For `CNC1C(OC2C(OC3C(O)C(O)C(NC(=N)N)C(O)C3NC(=N)N)OC(C)C2(O)C=O)OC(CO)C(O)C1O` (stereo unspecified), the “growth inhibition at single dose” value was less than 70%.
In the case of `CN(CCO)c1ccc(C(=O)c2ccc(N(C)CCO)cc2)cc1`, the “growth inhibition at single dose” value is reported as less than 70%.
For `CNc1snc(C)c1C(=O)NC(C)c1ccc(C(C)C)cc1` (stereo unspecified), the “growth inhibition at single dose” value was less than 70%.
With `CN(N=O)C1=C(NC2CCCCC2)C(=O)c2ccccc2C1=O` the “growth inhibition at single dose” value was less than 70%.
`COc1cccn2c(C(=O)N3CCCCC3)c(C(F)(F)F)nc12` was tested, and the “growth inhibition at single dose” value was less than 70%.
In the case of `Cc1cccc(Cn2ccc(NC(=O)c3ccc4c(c3)OCO4)n2)c1`, the “growth inhibition at single dose” value is reported as less than 70%.
`COc1ccc(-c2nc(NC(=O)CS(=O)(=O)c3ccc(F)cc3)sc2C)cc1` was tested, and the “growth inhibition at single dose” value was less than 70%.
In the case of `O=c1c2ccccc2cnn1-c1nc2ccccc2[nH]1`, the “growth inhibition at single dose” value is reported as less than 70%.
For `N=C1NC(=O)C(Cc2ccc(OC(F)(F)F)cc2)S1` (stereo unspecified), the “growth inhibition at single dose” value was less than 70%.
For `CN1CCC(c2cc(-c3ccncc3)c(-c3ccc(F)cc3)[nH]2)CC1`, the “growth inhibition at single dose” value was less than 70%.
With `CC(=O)NC(C)CCc1ccc(-c2csc(-c3ccc(NC(=O)C4CC4)cc3)n2)cc1` (stereo unspecified) the “growth inhibition at single dose” value was less than 70%.
In the case of `CCCc1cc(O)c2c3c(c(=O)oc2c1)CN(C)CC3`, the “growth inhibition at single dose” value is reported as less than 70%.
For `CCc1ccc(S(=O)(=O)Nc2cc(CN3CCN(CCC(C)C)CC3)ccc2C)cc1`, the “growth inhibition at single dose” value was less than 70%.
With `O=C(NCc1ccc(N2CCCC2=O)cc1)c1cccnc1OCC(F)(F)F` the “growth inhibition at single dose” value was less than 70%.
In the case of `O=C(NCCN1CCCC1)c1cc(NCCN2CCOCC2)nc2ccc(Cl)cc12`, the “growth inhibition at single dose” value is reported as less than 70%.
For `NC(=O)c1cc(Br)ccc1OCCOc1ccccc1`, the “growth inhibition at single dose” value was less than 70%.
`COc1ccc(C=C2SC(Nc3ccccc3)=NC2=O)cc1` was tested, and the “growth inhibition at single dose” value was less than 70%.
`O=C(NCc1ccccc1)/C(=C/c1ccc(OCc2ccccc2)cc1)c1nc2ccccc2[nH]1` was tested, and the “growth inhibition at single dose” value was less than 70%.
In the case of `O=C(Nc1nc2cc3c(cc2s1)OCCO3)c1cccc2c[nH]nc12`, the “growth inhibition at single dose” value is reported as less than 70%.
`COc1ccc(CCn2nc(C(=O)NC3CC3)c3c2CCN(C(=O)c2cc(C)n[nH]2)C3)cc1` was tested, and the “growth inhibition at single dose” value was less than 70%.
`Cc1ccc(N2C(=O)C3C(C2=O)C2(c4ccccc4)C(=O)C3(c3ccccc3)C(c3ccccc3)=C2c2ccccc2)cc1` (stereo unspecified) was tested, and the “growth inhibition at single dose” value was less than 70%.
In the case of `CCCc1ccc(-c2nc(-c3ccccc3)no2)cc1`, the “growth inhibition at single dose” value is reported as less than 70%.
`COc1ccc(-c2csc(NC(=O)CN3CCN(c4ncnc5c4cnn5C)CC3)n2)cc1` was tested, and the “growth inhibition at single dose” value was less than 70%.
With `Cc1cc(C(=O)CSc2nc3ccccc3[nH]2)c(C)n1CC1CCCO1` (stereo unspecified) the “growth inhibition at single dose” value was less than 70%.
For `CCn1nc(C(=O)NCc2ccc(OC)cc2)c2c1CCN(C(=O)c1cc(C)n[nH]1)C2`, the “growth inhibition at single dose” value was less than 70%.
In the case of `CC(C)n1ncc2cc(C(=O)Nc3nc(-c4ccccn4)cs3)cnc21`, the “growth inhibition at single dose” value is reported as less than 70%.
With `Cc1ccc(C(=O)NC(C)C)n1C` the “growth inhibition at single dose” value was less than 70%.
`COc1ccc(N(Cc2nc(-c3cccs3)oc2C)S(=O)(=O)c2cccs2)cc1` was tested, and the “growth inhibition at single dose” value was less than 70%.
`CC1=C(C#N)C(/C=N/N(C)c2ncc(C(F)(F)F)cc2Cl)CC(=O)N1` (stereo unspecified) was tested, and the “growth inhibition at single dose” value was less than 70%.
For `O=c1c2ccccc2[nH]c2ccc(Oc3ncnc4ccsc34)cc12`, the “growth inhibition at single dose” value was less than 70%.
With `O=c1ccc(-c2nc3c4c5c(sc4ncn3n2)CCCCC5)n[nH]1` the “growth inhibition at single dose” value was less than 70%.
For `CCN1CCN(c2c(C(=O)c3ccccc3)cnc3cc(OC)c(OC)cc23)CC1`, the “growth inhibition at single dose” value was less than 70%.
With `Cc1ccc(NS(=O)(=O)c2ccc(C(=O)Nc3ncccc3O)cc2)cc1C` the “growth inhibition at single dose” value was less than 70%.
In the case of `C/N=c1\scc(-c2ccccc2OC)n1/N=C/c1ccc[nH]1`, the “growth inhibition at single dose” value is reported as less than 70%.
`COc1cccc(-c2nn(C)c3sc(C(=O)NCCN4CCN(c5ccccc5F)CC4)cc23)c1` was tested, and the “growth inhibition at single dose” value was less than 70%.
For `CN(C)S(=O)(=O)c1ccc2oc(SCC(=O)Nc3cc(C(C)(C)C)no3)nc2c1`, the “growth inhibition at single dose” value was less than 70%.
With `O=C(NCCN1CCCC1)c1cc(NCCCCN2CCC(F)(F)CC2)nc2ccc(Cl)cc12` the “growth inhibition at single dose” value was less than 70%.
With `O=C(Nc1cccc(-c2nc3ccccc3[nH]2)c1)c1cccc(NC(=O)c2ccco2)c1` the “growth inhibition at single dose” value was less than 70%.
For `O=C(CCc1ccccc1)c1ccccc1OCC(O)CN1CCCCC1` (stereo unspecified), the “growth inhibition at single dose” value was less than 70%.
For `COc1ccc(N(CCc2cccc(C)n2)C(=O)C2CCCCC2)cc1`, the “growth inhibition at single dose” value was less than 70%.
`CN(C)Cc1nc(=O)c2c([nH]1)-c1ccccc1CC2(C)C` was tested, and the “growth inhibition at single dose” value was less than 70%.
`Clc1cc2c(c3ncccc13)OCN(Cc1ccco1)C2` was tested, and the “growth inhibition at single dose” value was less than 70%.
`O=C(Nc1nc(-c2ccccn2)cs1)c1ccc(-n2cncn2)cc1` was tested, and the “growth inhibition at single dose” value was less than 70%.
In the case of `CCC(C)NC(=O)c1ccc(NC(=O)C2(c3ccccc3)CCCC2)cc1` (stereo unspecified), the “growth inhibition at single dose” value is reported as less than 70%.
For `CC1CC(C)C[N+](=C2C=C(N3CCCC3)CC(C)(C)C2)C1` (stereo unspecified), the “growth inhibition at single dose” value was less than 70%.
In the case of `CCC(=O)Nc1nnc(Cc2ccc(OC)c(OC)c2)s1`, the “growth inhibition at single dose” value is reported as less than 70%.
For `CC1CCc2[nH]c3ccc(C(=O)Nc4ccccc4N4CCCCC4)cc3c2C1` (stereo unspecified), the “growth inhibition at single dose” value was less than 70%.
With `Cc1ccccc1-n1c(C)cc(/C=C(\C#N)C(=O)NCC2CCCO2)c1C` (stereo unspecified) the “growth inhibition at single dose” value was less than 70%.
For `CC(Nc1ncnc2sccc12)c1ccc(-n2cncn2)cc1` (stereo unspecified), the “growth inhibition at single dose” value was less than 70%.
In the case of `O=C(NC1CCN(c2ccnc3ccccc23)C1)c1cccc(C(F)(F)F)c1` (stereo unspecified), the “growth inhibition at single dose” value is reported as less than 70%.
In the case of `CNc1snc(C)c1C(=O)NCc1ccc(COCC(F)(F)F)cc1`, the “growth inhibition at single dose” value is reported as less than 70%.
With `Oc1ccc(C2=CCN(c3ncnc4ccccc34)CC2)cc1` the “growth inhibition at single dose” value was less than 70%.
For `O=C(Nc1cnc2ccccc2c1)c1cccc(NC(=O)c2cccs2)c1`, the “growth inhibition at single dose” value was less than 70%.
`Cc1ccc(C(=O)COC(=O)Cc2n[nH]c(=O)c3ccccc23)s1` was tested, and the “growth inhibition at single dose” value was less than 70%.
In the case of `OC(Cn1nnc2ccccc21)Cn1c2ccc(Br)cc2c2cc(Br)ccc21` (stereo unspecified), the “growth inhibition at single dose” value is reported as less than 70%.
With `Cc1ccsc1C(=O)Nc1ccc(N2CCN(C)CC2)cn1` the “growth inhibition at single dose” value was less than 70%.
`CCn1nnnc1Sc1nc(C)nc2sc3c(c12)CCC3` was tested, and the “growth inhibition at single dose” value was less than 70%.
`COc1cccc(Cn2nc(C(=O)NC3CC3)c3c2CCN(Cc2cc4c(cc2Cl)OCO4)C3)c1` was tested, and the “growth inhibition at single dose” value was less than 70%.
In the case of `O=C(NCc1ccco1)C1CCN(S(=O)(=O)c2ccc(Cl)cc2)CC1`, the “growth inhibition at single dose” value is reported as less than 70%.
For `CCOc1cc(Cl)c(C(C)NC(=O)c2ccccc2)cc1OCC` (stereo unspecified), the “growth inhibition at single dose” value was less than 70%.
For `COc1ccc(C2=NN(C3CCCCCC3)C(=O)C2(C)C)cc1OCCCCOc1ccc(-c2nn[nH]n2)cc1`, the “growth inhibition at single dose” value was less than 70%.
With `Cc1cc(C(=O)COC(=O)c2ccccc2C(F)(F)F)c(C)n1Cc1ccccc1Cl` the “growth inhibition at single dose” value was less than 70%.
`COc1cc2c(cc1OC)CN(CCNc1ncnc3sccc13)CC2` was tested, and the “growth inhibition at single dose” value was less than 70%.
`Cc1cccc(N2CCN(C(=O)c3ccc4[nH]c(C)c(C)c4c3)CC2)c1C` was tested, and the “growth inhibition at single dose” value was less than 70%.
With `O=C1O[C@@H](CO)CN1c1cc(F)c(C2=CCN(Cc3ccccc3)CC2)c(F)c1` the “growth inhibition at single dose” value was less than 70%.
For `Cc1ccc(O)c(C(=O)NCCc2ccc3c(c2)OCCO3)c1`, the “growth inhibition at single dose” value was less than 70%.
For `Cc1ccc(NC(=O)Nc2cccc(Cl)c2)cc1F`, the “growth inhibition at single dose” value was less than 70%.
With `Cc1nnc(NC(=O)c2cn(-c3ccccc3)nc2-c2ccccc2C)o1` the “growth inhibition at single dose” value was less than 70%.
`N=C(N)N/N=C/c1ccc(Cl)cc1Cl` was tested, and the “growth inhibition at single dose” value was less than 70%.
In the case of `C[C@H]1c2cccc(O)c2C(=O)C2=C(O)[C@]3(O)C(=O)C(C(N)=O)=C(O)[C@@H](N(C)C)[C@@H]3[C@@H](O)[C@@H]21`, the “growth inhibition at single dose” value is reported as less than 70%.
With `CC(C)NC(=O)N1CCCC(C(=O)Nc2nc3ccccc3[nH]2)C1` (stereo unspecified) the “growth inhibition at single dose” value was less than 70%.
For `Cc1ccc(S(=O)(=O)N2CCN(C(=O)c3cc(-c4ccccc4)[nH]n3)CC2)cc1`, the “growth inhibition at single dose” value was less than 70%.
For `CCC(C)c1ccc(S(=O)(=O)N(Cc2ccc(C(=O)NC3CC3)cc2)C2CC2)cc1` (stereo unspecified), the “growth inhibition at single dose” value was less than 70%.
For `Cc1ccc(-c2csc(Nc3ccccn3)n2)c(C)c1`, the “growth inhibition at single dose” value was less than 70%.
In the case of `Cc1cc(Nc2ccc(C(F)(F)F)cc2)n2ccnc2n1`, the “growth inhibition at single dose” value is reported as less than 70%.
In the case of `Nc1c(C(=O)c2ccc3c(c2)NC(=O)CO3)sc2c1c(=O)[nH]c(=O)n2Cc1ccccc1`, the “growth inhibition at single dose” value is reported as less than 70%.
